Reference: US5006515A, “Pharmaceuticals, phosphorus-containing 2-isoxazolines and isoxazoles contained therein” (Hoechst Aktiengesellschaft, priority 1987, dated 1991)
Like-named read-outs stand apart in the source and are kept apart here.

Tests used:
[1] = Acute toxicity; set-up: species or system mice; conditions: mouse, in vivo, single dose, mortality within 7 days
Experimental: The LD50 values were determined by the standard method via the mortality occurring within 7 days in NMRI (Naval Medical Research Institute) mice (6 animals per dose) after a single intraperitoneal (i.p.) or intravenous (i.v.) dose.

[2] = tested on: active Arthus reaction; test: Active Arthus reaction in the rat; format: in vivo, Sprague-Dawley rats
Experimental: The experimental animals used were female and male Sprague-Dawley rats with a body weight between 80 and 100 g which received subcutaneous injections into the tail-head of 0.5 ml of an emulsion of pertussis vaccine and ovalbumin in liquid paraffin. After two weeks, the rats were divided into groups each of 8 animals. 24 hours and 1 hour before induction of the Arthus reaction by injection of 0.1 ml of a 0.4% strength ovalbumin solution into the right hind paw, the particular test substance or the pure vehicle (positive control) was administered orally, sodium chloride solution was injected into the left paw. One group of unsensitized animals (negative control group) was likewise treated with ovalbumin in order to be able to rule out nonspecific reactions to the protein. The parameter used for measuring the action of the product was the percentage change in the increase in paw volume compared with that in the control group which was sensitized but untreated (positive control) 4 hours after ovalbumin challenge, when the swelling had reached its maximum.

[3] = biological target: leucine aminopeptidase; test: Inhibition of leucine aminopeptidase; format: biochemical; conditions: substrate L-leucine 4-nitroanilide
Experimental: The activity of the enzyme aminopeptidase B was determined photometrically using the substrate L-lysine 2-naphthylamide at room temperature. […] In the same way, the inhibition of leucine aminopeptidase was investigated using L-leucine 4-nitroanilide as enzyme substrate. The IC50 values are compiled in Table 6.

[4] = tested on: peritoneal macrophages; test: Stimulation of the release of lysosomal enzymes from peritoneal macrophages (exocytosis); conditions: single i.p. dose of 40 mg/kg; maximum activation by Example 34 = 100%
[5] = tested on: DTH reaction to sheep erythrocytes; test: Delayed-type hypersensitivity (DTH) reaction to sheep erythrocytes; format: in vivo, female NMRI mice; conditions: single i.p. dose of 40 mg/kg; maximal stimulation by Example 34 = 100%
Experimental: Groups each comprising 5 female NMRI mice with a body weight of 18 to 20 g were formed, and each animal was given 10^6 or 10^9 sheep red blood cells intravenously. Sheep erythrocytes are regarded in immunology as a standard antigen with which it is possible to check cellular and humoral immunoreactivity, especially the functioning of the T-cell-dependent component of the immune system, the so-called T-helper cells. The test substances were administered, in intraperitoneal doses of 5 to 100 mg/kg in physiological saline, at the same time as the antigen. After 5 days, each animal was given an injection of 2×10^8 sheep erythrocytes into the footpad. 24 hours later, the swelling of the foot was measured. The foot swelling is induced by a skin reaction of the delayed type (DTH reaction) and, as is known to those skilled in the art, is a measure of the cellular immune response (J. Immunol. 101 (1968), 830-845). The test results obtained with the product of Example 34, by way of example, are compiled in Table 7 and illustrate that the compounds of the formula I--administered prophylactically--are able to increase the cellular immune response after immunization with the antigen by stimulation of the T-cell system, with the stimulant action reaching its optimum in this experiment at a dose of 25 mg/kg.

[6] = Rattus norvegicus, po, 4 h, oral dose 50 mg/kg, 4 h after ovalbumin challenge
[7] = Rattus norvegicus, po, 4 h, read-out: Active Arthus reaction % change
[8] = Rattus norvegicus, po, 4 h, oral dose 100 mg/kg, 4 h after ovalbumin challenge, read-out: Active Arthus reaction % change

Question: Which LD50 at 168 h ([1]; ip) does the source give for `CP(=O)(O)C1CC(c2cccc3ccccc23)=NO1` (stereo not drawn) [Example 32] here?
Answer: 600 to 1200 mg/kg

Question: And the change in vivo at 50 mg/kg [2, 6]?
Answer: 42%

Question: Which change in vivo at 35 mg/kg [2, 7] does the source give for `CC(C)(C)c1cc(P(=O)(O)O)on1` [Example 77, Diammonium 3-tert.butyl-5-isoxazolylphosphonate] here?
Answer: -20%

Question: Which results are given for `COc1ccc(C2=NOC(P(=O)(O)O)C2)cc1` (stereo not drawn) [Example 48]?
Answer: LD50 at 168 h ([1]; ip): 300 to 600 mg/kg; Leucine aminopeptidase IC50 [3]: 100 μug/ml; change in vivo at 100 mg/kg [2, 8]: 10%

Question: With `O=P(O)(O)C1CC(c2ccc(Cl)cc2)=NO1` (stereo not drawn) [Example 40] as the compound, how does the LD50 at 168 h ([1]; iv) read?
Answer: > 200 mg/kg

Question: And the change in vivo at 50 mg/kg [2, 6]?
Answer: -23%

Question: Which LD50 at 168 h ([1]; iv) does the source give for `O=P(O)(O)c1cc(-c2ccccn2)no1` [Example 50] here?
Answer: > 200 mg/kg

Question: And the change in vivo at 25 mg/kg ([2]; Rattus norvegicus, po, 4 h, oral dose 25 mg/kg, 4 h after ovalbumin challenge, read-out: Active Arthus reaction % change)?
Answer: -18%

Question: Which LD50 at 168 h ([1]; iv) does the source give for `O=P(O)(O)C1CC(c2ccncc2)=NO1` (stereo not drawn) [Example 43] here?
Answer: > 200 mg/kg

Question: What about the change in vivo at 50 mg/kg [2, 6] of the same compound?
Answer: -14%

Question: For `COP(=O)(OC)C1CC(c2ccccc2)=NO1` (racemic) [Example 5, Dimethyl 3-phenyl-2-isoxazolin-5-ylphosphonate], which LD50 at 168 h ([1]; ip) is on record?
Answer: 300 to 600 mg/kg

Question: What about the “Active Arthus reaction % change” value ([2]; oral dose 100 mg/kg, 4 h after ovalbumin challenge) of the same compound?
Answer: -20%

Question: And the “Relative stimulation of macrophage activity: Exocytosis” value [4]?
Answer: 54%

Question: What does the source list for `O=P(O)(O)C1CC(c2ccc(F)cc2)=NO1` (stereo not drawn) [Example 67, 3-(4-Fluorophenyl)-2-isoxazolin-5-ylphosphonic acid]?
Answer: Leucine aminopeptidase IC50 [3]: 57 μug/ml; change in vivo at 50 mg/kg [2, 6]: -35%

Question: For `COP(=O)(OC)C1CC(C(C)(C)O)=NO1` (stereo not drawn) [Example 90], which “Active Arthus reaction % change” value ([2]; oral dose 50 mg/kg, 4 h after ovalbumin challenge) is on record?
Answer: -31%

Question: Which LD50 at 168 h ([1]; iv) does the source give for `O=[N+]([O-])c1ccc(C2=NOC(P(=O)(O)O)C2)cc1` (stereo not drawn) [Example 69, 3-(4-Nitrophenyl)-2-isoxazolin-5-ylphosphonic acid] here?
Answer: > 100 mg/kg

Question: And the “Leucine aminopeptidase IC50” value [3]?
Answer: 27 μug/ml

Question: What about the change in vivo at 50 mg/kg [2, 6] of the same compound?
Answer: -20%

Question: Which LD50 at 168 h ([1]; iv) does the source give for `O=P(O)(O)c1cc(-c2ccccc2)no1` [Example 46] here?
Answer: > 200 mg/kg

Question: And the change in vivo at 50 mg/kg [2, 6]?
Answer: -36%

Question: For `CN(C)P(=O)(C1CC(c2ccccc2)=NO1)N(C)C` (stereo not drawn) [Example 59, 3-Phenyl-2-isoxazolin-5-ylphosphonic tetra methyldiamide], which LD50 at 168 h ([1]; iv) is on record?
Answer: > 200 mg/kg

Question: And the change in vivo at 50 mg/kg [2, 6]?
Answer: -25%

Question: Which LD50 at 168 h ([1]; iv) does the source give for `CC(C)(C)C1=NOC(P(C)(=O)O)C1` (stereo not drawn) [Example 64, 3-tert.Butyl-2-isoxazolin-5-yl(P-methyl)phosphinic acid] here?
Answer: > 200 mg/kg

Question: And the change in vivo at 20 mg/kg [2, 7]?
Answer: -59%

Question: With `COC(=O)c1ccc(C2=NOC(P(=O)(OC)OC)C2)cc1` (stereo not drawn) [Example 66, Dimethyl 3-(4-methoxycarbonylphenyl)-2-isoxazolin-5-ylphosphonate] as the compound, how does the change in vivo at 50 mg/kg ([2]; Rattus norvegicus, oral dose 50 mg/kg, 4 h after ovalbumin challenge) read?
Answer: -28%

Question: Which change in vivo at 70 mg/kg [2, 7] does the source give for `CP(=O)(O)CC1CC(Cl)=NO1` (stereo not drawn) [Example 79, 3-Chloro-2-isoxazolin-5-ylmethyl(P-methyl)phosphinic acid] here?
Answer: -24%

Question: With `CP(=O)(O)C1CC(Cc2ccccc2)=NO1` (stereo not drawn) [Example 31] as the compound, how does the LD50 at 168 h ([1]; iv) read?
Answer: > 200 mg/kg

Question: And the change in vivo at 50 mg/kg [2, 6]?
Answer: 66%

Question: Which LD50 at 168 h ([1]; iv) does the source give for `CC(C)(C)C1=NOC(CP(C)(=O)O)C1` (stereo not drawn) [Example 99] here?
Answer: > 100 mg/kg

Question: And the change in vivo at 35 mg/kg [2, 7]?
Answer: -32%

Question: What does the source list for `O=P(O)(O)CC1CC(c2ccc(Cl)cc2)=NO1` (stereo not drawn) [Example 41]?
Answer: LD50 at 168 h ([1]; ip): 150 to 300 mg/kg; change in vivo at 100 mg/kg [2, 8]: 26%

Question: Which change in vivo at 35 mg/kg ([2]; Rattus norvegicus, po, 4 h, oral dose 35 mg/kg, 4 h after ovalbumin challenge, read-out: Active Arthus reaction % change) does the source give for `O=C(O)c1ccc(C2=NOC(P(=O)(O)O)C2)cc1` (stereo not drawn) [Example 87] here?
Answer: -29%

Question: What does the source list for `CCOP(=O)(O)C1CC(c2ccccc2)=NO1` (stereo not drawn) [Example 27, Monoethyl 3-phenyl-2-isoxazolin-5-ylphosphonate]?
Answer: Relative stimulation of the DTH reaction [5]: 94%; LD50 at 168 h ([1]; iv): > 200 mg/kg; change in vivo at 70 mg/kg ([2]; Rattus norvegicus, oral dose 70 mg/kg, 4 h after ovalbumin challenge, read-out: Active Arthus reaction % change): 108%

Question: With `CP(=O)(NCC(=O)OCc1ccccc1)C1CC(c2ccccc2)=NO1` (stereo not drawn) [57/58, N-[3-Phenyl-2-isoxazolin-5-yl(P-methyl)phosphinoyl]glycine benzyl ester] as the compound, how does the LD50 at 168 h ([1]; iv) read?
Answer: 50 to 100 mg/kg

Question: What about the change in vivo at 12 mg/kg ([2]; Rattus norvegicus, po, 4 h, oral dose 12 mg/kg, 4 h after ovalbumin challenge) of the same compound?
Answer: 22%

Question: With `COP(=O)(OC)C1CC(c2ccc(F)cc2)=NO1` (stereo not drawn) [Example 65] as the compound, how does the LD50 at 168 h ([1]; ip) read?
Answer: > 300 mg/kg
